Measured values taken from patent publication US9931342B2, “Compositions and methods for the treatment of cancer” (Duke University, priority 2016, dated 2018).

Legend:
1833 breast cancer cells = test: Breast cancer bone metastasis after intra-cardiac injection of 1833 cells in mice; format: in vivo
Excerpt: (A) Experimental design. (B) Survival of mice after intra-cardiac injection of 1833 (1×10^5) breast cancer cells and treatment with either dimethyl sulfoxide (DMSO) control or the allosteric ABL inhibitor GNF5. n=10 mice per group. (C) Bioluminescent images of representative mice at day 22 after inoculation. (D) Quantification of bone metastases. n=10 mice per group. (E and F) Representative H&E staining (E) and quantification (F) of H&E stained tumor area of bone lesions. Arrows indicate tumor. n=3 mice per group. Scale bar, 200 μm. (G and H) Representative x-ray and μCT reconstruction (G) of mouse tibias and quantification (H) of bone volume/total volume. n=3 mice per group.
Procedures involving mice were approved and performed following the guidelines of the Institutional Animal Care and Use Committee (IACUC) of Duke University Division of Laboratory Animal Resources (DLAR). Age-matched female athymic NCr nu/nu mice (5 to 6 weeks old) were used for xenograft experiments. For intra-cardiac injections, cells were harvested from sub-confluent culture plates, washed with phosphate-buffered saline (PBS), and resuspended at 106/ml (1833) or 5×10^6/ml (SCP28) in PBS; 0.1 ml of the suspended cells was injected into the left cardiac ventricle using 30-gauge needles. Mice were anesthetized with isoflurane before injection and imaged by bioluminescence imaging. For intra-tibial injections, mice were anesthetized using a mixture of ketamine (100 mg/kg) and xylazine (10 mg/kg). The injection site was cleaned with a 70% alcohol wipe. Single-cell suspensions (1×10^5 cells) in a final volume of […] were injected into the upper half of the tibia medullary cavity, as felt by a lack of resistance when pushing cells into the cavity. Bioluminescence imaging was used to confirm successful cancer cell inoculation and progression of metastatic bone lesions. The allosteric inhibitor GNF5 was synthesized by the Duke University Small Molecule Synthesis Facility. For drug treatment, the mice were dosed daily with GNF5 in DMSO/peanut oil (1:9) at 50 mg/kg by intraperitoneal injection.
Hind limb bones were excised, fixed in 10% neutral-buffered formalin, and imaged using a μCT scanner (SkyScan 1176, Bruker Corp.) at […] and 180° scanning with a rotation step of 0.7° per image, 242-ms exposure time, 55-kV photon energy, and […]. The images were reconstructed using NReconServer, and bone volume was analyzed by CT analysis software (CTAn, Bruker Corp.).
Hind limb bones were excised, fixed in 10% neutral-buffered formalin, decalcified, and embedded in paraffin for H&E staining (Zhang et al., Cancer Cell, 2009).

RAF-ERK pathway = test: ERK activation, Western blot of 1833 breast cancer cell lysates; format: cell-based, human; settings: 10 μM, 3 hours, 1833 cells
Description: (§1) Cells were lysed in radio-immunoprecipitation assay buffer with protease and phosphatase inhibitors. Cell debris was removed by microcentrifugation, and protein was quantified. Alternatively, equal cell numbers were plated onto six-well plates, and 24 hours later, conditioned medium was harvested and concentrated using Amicon Ultra Centrifugal Filters (Millipore). Equal amounts of protein or conditioned medium were separated by SDS-polyacrylamide gel electrophoresis and transferred onto nitrocellulose membranes and probed with the indicated antibodies.

TAZ = TAZ protein abundance, immunoblot of 1833 cells; format: cell-based, human; settings: 20 μM, 24 hours
Description: Control 1833 cells or 1833 cells expressing murine Ab12-E505K mutant protein were plated (3×10^5 cells per group) in six well plates. Cells were then treated with vehicle (DMSO) or GNF5 (20 μM) for 24 hours and immunoblotted with the indicated antibodies. n=3 blots.
as §1

FH-deficient HLRCC = settings: cited from earlier work
[1] = 50 mg/kg daily i.p. starting day 8

SMILES | bone destruction (x-ray, μCT) (1833 breast cancer cells; [1]) | bone tumor burden by histological analyses (H&E) (1833 breast cancer cells; [1]) | bone metastasis burden by bioluminescence imaging (1833 breast cancer cells; 50 mg/kg daily i.p. starting day 8, day 22 imaging) | ratio of bone volume to total volume (μCT) (1833 breast cancer cells; 50 mg/kg daily i.p. starting day 8, mouse tibias) | survival of tumor-bearing mice (1833 breast cancer cells; 50 mg/kg daily i.p. starting day 8 after intra-cardiac injection) | ERK activation (phospho-Erk) (RAF-ERK pathway) | TAZ protein abundance (TAZ; 1833 cells expressing murine ABL2-E505K (GNF5-resistant mutant)) | TAZ protein abundance (TAZ; control 1833 cells) | cytotoxicity to FH-deficient HLRCC (FH-deficient HLRCC)
O=C(NCCO)c1cccc(-c2cc(Nc3ccc(OC(F)(F)F)cc3)ncn2)c1 [GNF5] | decreased | decrease | decrease | increased | significant increase | does not activate | not decreased | decreased | 
Cc1ccc(NC(=O)c2ccc(CN3CCN(C)CC3)cc2)cc1Nc1nccc(-c2cccnc2)n1 [imatinib] |  |  |  |  |  | promotes ERK activation |  |  | cytotoxic
COc1cc2c(Nc3ccc(Br)cc3F)ncnc2cc1OCC1CCN(C)CC1 [vandetanib] |  |  |  |  |  |  |  |  | cytotoxic
